From ChEMBL document CHEMBL1201862, “PubChem BioAssay data set” (2004)
Active and inactive are the calls of the source.

How the values were obtained:
[1] = Luminescence Cell-Based Dose Confirmation HTS to Identify Activators of 5'UTR Stem-Loop Driven Alpha-Synuclein mRNA Translation in H4 Neuroglioblastoma Cells. [Related pubchem assays: 1829 (Project Summary), 1814 (Primary HTS)]; type: functional
[2] = Luminescence Cell-Based Dose Response HTS to Identify Activators of Luciferase Translation or Activity in H4 […] Cells. [Related pubchem assays: 1829 (Project Summary), 1814 (Primary HTS)]; type: functional
H4 = assay: Luminescence Cell-Based Dose Response HTS to Identify Activators of 5'UTR Stem-Loop Driven Prion Protein mRNA Translation in H4 Neuroglioblastoma Cells. [Related pubchem assays: 1829 (Project Summary), 1814 (Primary HTS)]; type: functional; conditions: Homo sapiens
[3] = microbe, parasite or virus in culture; type: functional; conditions: Mycobacterium tuberculosis
Protein skinhead-1 = molecular target: T1, Protein skinhead-1 (Caenorhabditis elegans, UniProt P34707); type: functional
T1 sequence (P34707 whole entry): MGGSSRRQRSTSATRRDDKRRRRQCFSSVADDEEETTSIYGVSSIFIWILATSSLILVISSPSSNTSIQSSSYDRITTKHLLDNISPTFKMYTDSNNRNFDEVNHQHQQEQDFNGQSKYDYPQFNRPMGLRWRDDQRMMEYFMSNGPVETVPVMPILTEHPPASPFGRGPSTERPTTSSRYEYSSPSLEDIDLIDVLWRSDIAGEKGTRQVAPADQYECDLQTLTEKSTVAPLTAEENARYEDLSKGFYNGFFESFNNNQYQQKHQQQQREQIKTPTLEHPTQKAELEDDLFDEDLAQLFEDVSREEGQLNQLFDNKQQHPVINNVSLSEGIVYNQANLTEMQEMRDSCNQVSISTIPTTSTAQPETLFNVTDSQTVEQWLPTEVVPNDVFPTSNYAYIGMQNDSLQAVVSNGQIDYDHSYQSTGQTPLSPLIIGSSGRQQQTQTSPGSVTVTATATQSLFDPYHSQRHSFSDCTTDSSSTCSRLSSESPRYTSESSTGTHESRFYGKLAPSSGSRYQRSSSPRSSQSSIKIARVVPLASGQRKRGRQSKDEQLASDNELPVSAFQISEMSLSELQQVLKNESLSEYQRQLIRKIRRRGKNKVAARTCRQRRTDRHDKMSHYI

Large T antigen = Large T antigen (Simian virus 40, UniProt P03070); type: functional, Betapolyomavirus macacae;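 further: Confirmatory-stage PubChem screen for compounds that inhibit SV40 T antigen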
Large T antigen, sequence (P03070 whole entry): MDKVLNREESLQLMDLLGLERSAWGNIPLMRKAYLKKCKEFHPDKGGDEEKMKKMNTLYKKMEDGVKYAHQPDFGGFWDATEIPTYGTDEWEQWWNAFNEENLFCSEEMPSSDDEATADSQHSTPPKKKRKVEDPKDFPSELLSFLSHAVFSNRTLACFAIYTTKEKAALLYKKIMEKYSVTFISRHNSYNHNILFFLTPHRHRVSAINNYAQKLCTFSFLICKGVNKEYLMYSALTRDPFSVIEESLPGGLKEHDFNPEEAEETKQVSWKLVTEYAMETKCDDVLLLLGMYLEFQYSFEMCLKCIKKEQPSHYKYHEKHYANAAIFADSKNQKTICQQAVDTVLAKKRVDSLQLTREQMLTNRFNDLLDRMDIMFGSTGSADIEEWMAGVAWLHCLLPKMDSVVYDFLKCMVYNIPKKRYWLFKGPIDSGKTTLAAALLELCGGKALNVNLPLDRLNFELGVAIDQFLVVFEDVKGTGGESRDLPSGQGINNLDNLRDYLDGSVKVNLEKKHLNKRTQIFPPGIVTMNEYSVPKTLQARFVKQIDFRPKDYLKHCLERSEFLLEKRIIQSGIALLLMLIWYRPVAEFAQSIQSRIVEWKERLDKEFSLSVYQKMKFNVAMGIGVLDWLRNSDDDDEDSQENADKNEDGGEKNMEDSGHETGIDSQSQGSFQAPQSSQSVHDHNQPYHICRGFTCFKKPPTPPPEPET

[4] = Luminescence Cell-Based Dose Retest to Confirm Inhibitors of Cancer Stem Cells. [Related pubchem assays (depositor defined):AID2717, AID2721]; type: functional; conditions: Homo sapiens
Genome polyprotein = Genome polyprotein (dengue virus type 2, UniProt P29990); assay: Dengue-2 NS5 methyltransferase inhibitors, primary screen, biochemical, confirmation dose response (AID 588689); type: functional
Genome polyprotein, sequence (P29990 2492-3391 limits assumed): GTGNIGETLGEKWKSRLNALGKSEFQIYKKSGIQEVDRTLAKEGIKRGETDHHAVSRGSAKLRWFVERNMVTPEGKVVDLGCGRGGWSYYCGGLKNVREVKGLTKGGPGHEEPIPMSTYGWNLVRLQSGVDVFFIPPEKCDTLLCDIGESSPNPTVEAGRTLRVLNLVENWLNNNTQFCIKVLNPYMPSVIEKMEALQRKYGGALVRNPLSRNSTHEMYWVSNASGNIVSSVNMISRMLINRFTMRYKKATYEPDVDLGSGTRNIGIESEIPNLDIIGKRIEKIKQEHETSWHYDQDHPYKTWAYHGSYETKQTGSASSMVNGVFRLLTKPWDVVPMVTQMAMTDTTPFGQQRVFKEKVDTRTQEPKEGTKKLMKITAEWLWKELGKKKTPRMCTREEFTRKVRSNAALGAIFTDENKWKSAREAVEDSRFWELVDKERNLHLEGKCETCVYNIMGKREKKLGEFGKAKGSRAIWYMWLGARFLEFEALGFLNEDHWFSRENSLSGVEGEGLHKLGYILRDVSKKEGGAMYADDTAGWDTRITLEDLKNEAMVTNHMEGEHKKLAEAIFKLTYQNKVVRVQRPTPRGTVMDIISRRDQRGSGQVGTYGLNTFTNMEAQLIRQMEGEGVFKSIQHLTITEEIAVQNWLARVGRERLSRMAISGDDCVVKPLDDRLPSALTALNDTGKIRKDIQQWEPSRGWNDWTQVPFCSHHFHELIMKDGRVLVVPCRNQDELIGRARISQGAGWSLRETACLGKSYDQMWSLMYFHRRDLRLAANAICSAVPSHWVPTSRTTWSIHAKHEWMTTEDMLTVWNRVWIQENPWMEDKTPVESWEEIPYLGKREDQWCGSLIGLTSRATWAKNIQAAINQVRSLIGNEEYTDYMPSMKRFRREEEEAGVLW

[5] = inhibitors of intracellular T. cruzi replication, confirmation, NIH3T3 host cells, beta-gal luminescence (AID 2044); type: functional, cell-based;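 further: intracellular parasites grown in NIH/3T3 mouse fibroblasts as host cells; luminescent beta-galactosidase reporter signal from transgenic T. cruzi replicating inside host cells; inhibitors lower the luminescence signal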
[6] = cytotoxicity toward NIH3T3 fibroblasts, dose response, counter-screen, cell-based, ATP luminescence, mouse fibroblasts (AID 2010); type: functional;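 further: cells exposed to compound for about 90 hours before reading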
[7] = molecular target: T2, Heat shock factor protein 1 (Mus musculus, UniProt P38532); assay: HSF1 potentiators in luciferase reporter cells, confirmation, cell-based, NIH3T3, luminescence, dose retest (AID 435004); type: functional;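 further: stress induced by proteasome inhibitor MG132 added 30 min after compound; luciferase reporter driven by HSF1 response element in NIH3T3 cells; actives raise luminescence as potentiators of the MG132 stress response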
T2 sequence (P38532 whole entry): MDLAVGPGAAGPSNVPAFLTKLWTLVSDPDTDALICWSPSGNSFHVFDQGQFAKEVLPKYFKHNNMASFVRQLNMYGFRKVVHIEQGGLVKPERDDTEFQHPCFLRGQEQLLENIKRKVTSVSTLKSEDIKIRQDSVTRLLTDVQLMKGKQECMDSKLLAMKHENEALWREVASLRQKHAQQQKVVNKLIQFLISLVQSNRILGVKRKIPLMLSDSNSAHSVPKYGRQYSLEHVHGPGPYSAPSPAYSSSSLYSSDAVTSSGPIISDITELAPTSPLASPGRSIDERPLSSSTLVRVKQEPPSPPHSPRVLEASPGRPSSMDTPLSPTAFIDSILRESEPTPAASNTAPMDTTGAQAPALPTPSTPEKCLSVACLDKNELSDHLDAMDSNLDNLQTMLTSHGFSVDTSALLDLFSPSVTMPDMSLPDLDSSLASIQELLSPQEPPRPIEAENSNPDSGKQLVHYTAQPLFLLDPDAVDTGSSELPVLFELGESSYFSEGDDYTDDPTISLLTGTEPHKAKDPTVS

[8] = molecular target: T3, Replicative DNA helicase DnaB (Mycobacterium tuberculosis, UniProt P9WMR3); assay: DnaB intein splicing inhibitors, dose response, biochemical, cell-free fluorescence (AID 449749); type: functional
T3 sequence (P9WMR3 whole entry): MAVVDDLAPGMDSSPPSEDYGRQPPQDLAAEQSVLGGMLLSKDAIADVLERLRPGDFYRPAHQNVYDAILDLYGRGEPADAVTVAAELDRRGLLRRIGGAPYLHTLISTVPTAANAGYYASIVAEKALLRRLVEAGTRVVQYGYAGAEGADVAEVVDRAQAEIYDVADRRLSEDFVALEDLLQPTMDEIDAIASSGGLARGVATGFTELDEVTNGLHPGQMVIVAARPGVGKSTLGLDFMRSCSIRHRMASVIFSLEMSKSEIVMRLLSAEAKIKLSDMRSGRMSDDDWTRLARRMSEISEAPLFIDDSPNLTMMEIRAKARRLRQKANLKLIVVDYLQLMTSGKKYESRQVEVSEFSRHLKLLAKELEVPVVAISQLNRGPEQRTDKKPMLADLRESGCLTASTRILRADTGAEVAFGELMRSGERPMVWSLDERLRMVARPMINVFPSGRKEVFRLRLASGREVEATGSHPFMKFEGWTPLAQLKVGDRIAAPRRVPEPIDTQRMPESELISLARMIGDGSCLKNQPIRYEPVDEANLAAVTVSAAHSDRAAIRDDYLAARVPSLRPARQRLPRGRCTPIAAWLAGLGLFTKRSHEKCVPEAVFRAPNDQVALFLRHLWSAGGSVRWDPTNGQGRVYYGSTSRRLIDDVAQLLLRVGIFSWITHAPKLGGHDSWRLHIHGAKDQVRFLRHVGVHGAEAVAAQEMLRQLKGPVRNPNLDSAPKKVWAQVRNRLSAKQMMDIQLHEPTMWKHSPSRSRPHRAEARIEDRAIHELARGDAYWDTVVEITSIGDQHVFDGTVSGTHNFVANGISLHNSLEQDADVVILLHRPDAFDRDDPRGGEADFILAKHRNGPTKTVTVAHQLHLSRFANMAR

Protein RecA = molecular target: T4, Protein RecA (Mycobacterium tuberculosis, UniProt P9WHJ3); assay: Fluorescence Cell-Free Homogeneous Dose Retest to Identify Inhibitors of RecA-Intein Splicing Activity. [Related pubchem assays (depositor defined):AID2097, AID2223, AID489010, AID492950]; type: functional
T4 sequence (P9WHJ3 whole entry): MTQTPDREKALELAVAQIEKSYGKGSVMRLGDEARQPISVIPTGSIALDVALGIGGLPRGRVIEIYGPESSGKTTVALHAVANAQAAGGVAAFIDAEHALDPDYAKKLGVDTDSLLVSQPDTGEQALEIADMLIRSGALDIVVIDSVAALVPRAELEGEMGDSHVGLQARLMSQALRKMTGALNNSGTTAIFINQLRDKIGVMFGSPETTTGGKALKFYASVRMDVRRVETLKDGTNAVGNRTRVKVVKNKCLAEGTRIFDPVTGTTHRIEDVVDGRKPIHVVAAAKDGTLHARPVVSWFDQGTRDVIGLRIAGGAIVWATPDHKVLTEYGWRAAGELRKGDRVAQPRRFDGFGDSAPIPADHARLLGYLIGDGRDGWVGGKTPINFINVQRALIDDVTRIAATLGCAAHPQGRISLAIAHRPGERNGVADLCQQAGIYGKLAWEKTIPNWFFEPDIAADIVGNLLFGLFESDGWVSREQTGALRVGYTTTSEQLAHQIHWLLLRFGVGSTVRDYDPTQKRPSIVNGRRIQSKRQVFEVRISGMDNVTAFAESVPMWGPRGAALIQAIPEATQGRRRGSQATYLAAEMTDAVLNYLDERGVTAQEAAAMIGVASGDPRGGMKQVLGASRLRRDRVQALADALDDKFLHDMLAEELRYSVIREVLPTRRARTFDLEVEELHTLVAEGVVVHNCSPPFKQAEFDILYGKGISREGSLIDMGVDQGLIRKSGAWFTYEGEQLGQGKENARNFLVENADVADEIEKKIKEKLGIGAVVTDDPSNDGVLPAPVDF

[9] = molecular target: Induced myeloid leukemia cell differentiation protein Mcl-1 (Homo sapiens, UniProt Q07820); type: functional
Induced myeloid leukemia cell differentiation protein Mcl-1, sequence (Q07820 whole entry): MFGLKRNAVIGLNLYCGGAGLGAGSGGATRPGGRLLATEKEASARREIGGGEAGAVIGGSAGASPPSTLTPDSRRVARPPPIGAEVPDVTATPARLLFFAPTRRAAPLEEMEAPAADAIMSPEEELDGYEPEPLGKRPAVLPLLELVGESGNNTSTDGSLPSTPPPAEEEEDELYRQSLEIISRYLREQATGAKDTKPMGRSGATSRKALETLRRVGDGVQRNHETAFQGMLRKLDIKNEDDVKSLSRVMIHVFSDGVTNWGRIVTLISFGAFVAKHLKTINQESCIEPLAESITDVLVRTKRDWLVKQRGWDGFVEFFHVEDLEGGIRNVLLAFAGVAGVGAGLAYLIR

[10] = system: Streptococcus sp. 'group A'; assay: growth inhibition of control SK(-) GAS strain, dose response, counter-screen for streptokinase expression inhibitor project, luminescence, kanamycin, BacTiterGlo, confirmation (AID 1900); type: functional, organism-based
Streptokinase A = molecular target: T5, Streptokinase A (Streptococcus pyogenes serotype M1, UniProt P10520); assay: S. pyogenes streptokinase expression inhibitors, potency, dose response, plasminogen activation absorbance, OD405 (AID 1914); type: functional, Streptococcus pyogenes M1 GAS;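 further: secreted streptokinase activity via plasminogen activation per viability signal from cell pellet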
T5 sequence (P10520 whole entry): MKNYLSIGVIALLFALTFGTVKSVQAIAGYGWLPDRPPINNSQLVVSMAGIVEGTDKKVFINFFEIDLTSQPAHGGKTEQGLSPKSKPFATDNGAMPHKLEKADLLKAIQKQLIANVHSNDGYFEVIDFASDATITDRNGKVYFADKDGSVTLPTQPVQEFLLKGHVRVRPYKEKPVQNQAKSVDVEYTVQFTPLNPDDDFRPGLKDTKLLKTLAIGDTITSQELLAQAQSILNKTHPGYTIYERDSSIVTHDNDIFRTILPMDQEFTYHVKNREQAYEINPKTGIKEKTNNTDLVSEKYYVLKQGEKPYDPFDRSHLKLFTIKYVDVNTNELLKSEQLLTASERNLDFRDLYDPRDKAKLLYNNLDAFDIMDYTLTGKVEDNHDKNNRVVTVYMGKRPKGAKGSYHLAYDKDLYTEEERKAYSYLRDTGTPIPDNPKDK

Streptococcus = assay: Group A Streptococcus viability loss, dose response, counter-screen for streptokinase expression inhibitor project, luminescence, BacTiterGlo (AID 1915); type: functional, organism-based;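 further: potency for reduction of bacterial viability or growth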

Nc1nc2c(C(=O)N3CCOCC3)nnn2c2ccccc12
EC50 [1]: 0.138 µM (active)
EC50 [2]: 0.203 µM (active)
EC50 (H4): 26.9 µM (active)

CC(C)(C)c1ccc(-c2nc3nc(O)cc(NC(=O)c4ccco4)n3n2)cc1
CC50 [3]: > 40 µM (active)

COc1cc(CCC(=O)OCC(=O)Nc2ccc(F)cc2F)cc(OC)c1OC
IC50 (Protein skinhead-1): > 100 µM (inactive)

O=C(CCOc1ccccc1)N1CCN(c2ccc(O)cc2)CC1
IC50 (Large T antigen): 4.19 µM (active)
AC50 [4]: 11.3 µM (active)

Cc1cc(N2CCOCC2)nc2cc(O)ccc12
EC50 [1]: 16.2 µM (active)
EC50 [2]: 6.94 µM (active)
EC50 (H4): > 120 µM (not active)

Cc1ccc2nc3c(cc(C(=O)NCc4ccco4)c(=N)n3Cc3ccco3)c(=O)n2c1
CC50 [3]: 23.8 µM (active)

CCOc1cc(/C=C/c2cc(C(F)(F)F)nc(O)n2)ccc1O
IC50 (Large T antigen): 13 µM (active)

O=c1c(-c2cnn(-c3ccccc3)c2)coc2cc(O)ccc12
CC50 [3]: > 40 µM (active)

COc1ccc(CN2CCN(Cc3ccco3)CC2)cc1
IC50 (Protein skinhead-1): > 100 µM (inactive)

CCOc1ccc(OCCC(=O)OCC(=O)N2CCN(S(=O)(=O)c3ccc(C)cc3)CC2)cc1
IC50 (Large T antigen): 11.1 µM (active)

Fc1ccc(-c2nc(-c3cccs3)no2)cc1
IC50 (Protein skinhead-1): > 100 µM (inactive)

Cc1cc(-n2c(C)cc(C(=O)COc3ccccc3[N+](=O)[O-])c2C)no1
EC50 [1]: 13.5 µM (active)
EC50 [2]: 44.9 µM (active)
EC50 (H4): > 120 µM (not active)

O=C(O)/C=C/C(=O)c1ccc2c(c1)NC(=O)CO2
IC50 (Genome polyprotein): > 100 µM (active)

O=C(c1ccccc1)c1ccc(OCCOCCN2CCN(Cc3ccccc3)CC2)cc1
CC50 [3]: > 40 µM (active)

COc1ccc(O)c(C(=O)c2cnn(-c3ccccn3)c2)c1
EC50 [1]: 15.4 µM (active)
EC50 [2]: 43.5 µM (active)
EC50 (H4): 9.17 µM (active)

Cc1ccccc1-c1nc(C[S+]([O-])CC(=O)NCc2ccc3c(c2)OCO3)c(C)o1 (stereo not drawn)
IC50 (Protein skinhead-1): > 100 µM (inactive)

C=C[S+]([O-])c1sc(Cl)c(N2CCOCC2)c1[N+](=O)[O-] (stereo not drawn)
IC50 (Large T antigen): 9.77 µM (active)
EC50 [5]: 2.99 µM (active)
EC50 [6]: 3.08 µM (active)
EC50 [7]: 3.36 µM (inconclusive)
AC50 [8]: 22.2 µM (active)
EC50 (Protein RecA): 18.8 µM (active)

c1csc(-c2cn3ccc4ccccc4c3n2)c1
EC50 [2]: 26 µM (active)
EC50 (H4): 0.106 µM (active)
IC50 (Protein skinhead-1): 33.6 µM (active)

CCN1CCN(c2ncnc3c2c(-c2ccccc2)cn3-c2ccc(F)cc2)CC1
IC50 (Protein skinhead-1): 12.6 µM (active)

Cc1cc(C)n2nc(/C(C#N)=C/c3ccccn3)c(C#N)c2n1
CC50 [3]: > 40 µM (active)

OC(CN1CCN(c2ccccn2)CC1)Cn1c2ccccc2c2ccccc21 (stereo not drawn)
CC50 [3]: > 40 µM (active)

CCN(CC)c1ccc(NC(=O)CCNC(=O)c2ccco2)cc1
IC50 (Large T antigen): 6.69 µM (active)
IC50 [9]: 9.57 µM (not active)

O=C(CN1C(=O)NC2(CCCC2)C1=O)Nc1cc(S(=O)(=O)N2CCOCC2)ccc1OCC(F)(F)F
IC50 (Protein skinhead-1): > 100 µM (inactive)

Cc1cnc(C(=O)N(CCCn2ccnc2)C2C(=O)Nc3ccccc3N=C2c2ccccc2)cn1 (stereo not drawn)
IC50 (Protein skinhead-1): > 100 µM (inactive)

COc1cc(/C=N/N=C2/C(=O)Nc3ccccc32)ccc1O
IC50 (Large T antigen): 8.73 µM (active)

Cc1nn(-c2ccccc2)c(Cl)c1/C=C1\SC(=S)N(CCCCCC(=O)O)C1=O
EC50 [10]: 5.26 µM (active)
EC50 (Streptokinase A): 40.7 µM (inconclusive)
EC50 (Streptococcus): 11.2 µM (active)
AC50 [8]: 4.93 µM (active)
EC50 (Protein RecA): 14.2 µM (active)
IC50 (Genome polyprotein): 41.4 µM (active)
